US20060100245A1, “Substituted biphenyl-4-carboxylic acid arylamide analogues” (Neurogen Corporation, priority 2002, published 2006)

Biological target: T1, human capsaicin receptor (VR1) (Homo sapiens, UniProt Q8NER1)
T1 construct: transfected with the pBK-CMV expression construct encoding the full length human capsaicin receptor; expressed in transfected cells
Experiment: Capsaicin receptor binding assay ([3H]RTX competition)
Conditions: read-out: Ki
Summary of the method: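 Membranes from HEK293 cells stably expressing full-length human VR1; competition against 60 pM [3H]RTX, 60 min at 37 °C in HEPES/sucrose buffer pH 7.4 with 0.25 mg/ml BSA. Non-specific binding defined with 1 μM unlabelled RTX; alpha1-acid glycoprotein added after termination on ice.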

T1 sequence (Q8NER1 whole entry): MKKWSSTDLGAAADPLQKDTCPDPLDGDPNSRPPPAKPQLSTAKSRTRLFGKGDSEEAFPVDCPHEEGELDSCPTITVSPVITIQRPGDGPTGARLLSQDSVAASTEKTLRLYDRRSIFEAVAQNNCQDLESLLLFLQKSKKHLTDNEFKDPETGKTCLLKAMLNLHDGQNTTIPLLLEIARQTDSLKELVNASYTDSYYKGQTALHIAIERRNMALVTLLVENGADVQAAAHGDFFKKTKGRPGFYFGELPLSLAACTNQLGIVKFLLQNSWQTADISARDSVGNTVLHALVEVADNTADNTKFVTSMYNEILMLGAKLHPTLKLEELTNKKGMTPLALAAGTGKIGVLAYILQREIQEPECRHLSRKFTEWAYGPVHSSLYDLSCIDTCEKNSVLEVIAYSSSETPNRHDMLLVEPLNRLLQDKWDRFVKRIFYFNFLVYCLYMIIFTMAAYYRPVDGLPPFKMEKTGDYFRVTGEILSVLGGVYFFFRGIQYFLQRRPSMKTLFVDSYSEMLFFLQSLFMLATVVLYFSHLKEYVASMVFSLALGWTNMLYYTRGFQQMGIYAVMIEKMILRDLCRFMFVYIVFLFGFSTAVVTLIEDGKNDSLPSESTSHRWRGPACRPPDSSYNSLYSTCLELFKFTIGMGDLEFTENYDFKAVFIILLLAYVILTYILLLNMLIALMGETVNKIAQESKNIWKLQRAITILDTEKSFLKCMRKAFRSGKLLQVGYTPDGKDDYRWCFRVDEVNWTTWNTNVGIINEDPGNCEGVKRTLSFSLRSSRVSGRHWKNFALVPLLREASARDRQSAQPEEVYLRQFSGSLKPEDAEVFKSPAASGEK

| SMILES | Ki [µM] |
| --- | --- |
| COc1cccc(-c2ccc(C(=O)Nc3ccc(C)c(F)c3)cn2)c1 [Compound 268, N-(3-Fluoro-4-methyl-phenyl)-6-(3-methoxy-phenyl)-nicotinamide] | < 1 |
| COc1cccc(NC(=O)c2ccc(-c3cccc(OC(F)(F)F)c3)nc2)c1 [Compound 278] | < 1 |
| COc1cccc(NC(=O)c2ccc(-c3cccc(C)c3)nc2)c1 [Compound 280, N-(3-Methoxy-phenyl)-6-m-tolyl-nicotinamide] | < 1 |
| COc1cccc(NC(=O)c2ccc(-c3ccccc3)nc2)c1 [Compound 282, N-(3-Methoxy-phenyl)-6-phenyl-nicotinamide] | < 1 |
| CC(C)(C)c1cccc(NC(=O)c2ccc(-c3ccccc3F)nc2)c1 [Compound 288, N-(3-tert-Butyl-phenyl)-6-(2-fluoro-phenyl)-nicotinamide] | < 1 |
| CC(C)(C)c1cccc(NC(=O)c2ccc(-c3cccc(F)c3)nc2)c1 [Compound 296, N-(3-tert-Butyl-phenyl)-6-(3-fluoro-phenyl)-nicotinamide] | < 1 |
| Cc1cc(C)cc(-c2ccc(C(=O)Nc3ccc(Br)c(Cl)c3)cn2)c1 [Compound 316, N-(4-Bromo-3-chloro-phenyl)-6-(3,5-dimethyl-phenyl)-nicotinamide] | < 1 |
| CCOc1cccc(-c2ccc(C(=O)Nc3ccc(Br)c(Cl)c3)cn2)c1 [Compound 317, N-(4-Bromo-3-chloro-phenyl)-6-(3-ethoxy-phenyl)-nicotinamide] | < 1 |
| O=C(Nc1ccc(Br)c(Cl)c1)c1ccc(-c2cccc(F)c2)nc1 [Compound 318, N-(4-Bromo-3-chloro-phenyl)-6-(3-fluoro-phenyl)-nicotinamide] | < 1 |
| O=C(Nc1ccc(Br)c(Cl)c1)c1ccc(-c2ccc(F)cc2)nc1 [Compound 320, N-(4-Bromo-3-chloro-phenyl)-6-(4-fluoro-phenyl)-nicotinamide] | < 1 |
| CC(C)c1ccc(-c2ccc(C(=O)Nc3ccc(Br)c(Cl)c3)cn2)cc1 [Compound 321, N-(4-Bromo-3-chloro-phenyl)-6-(4-isopropyl-phenyl)-nicotinamide] | < 1 |
| CCCCc1ccc(NC(=O)c2ccc(-c3ncccc3Cl)cc2)cc1 [Compound 332, N-(4-Butyl-phenyl)-4-(3-chloro-pyridin-2-yl)-benzamide] | < 1 |
| CCCCc1ccc(NC(=O)c2ccc(-c3ccccc3C)nc2)cc1 [Compound 343, N-(4-Butyl-phenyl)-6-o-tolyl-nicotinamide] | < 1 |
| O=C(Nc1ccc(Cl)cc1)c1ccc(-c2ccccc2F)nc1 [Compound 348, N-(4-Chloro-phenyl)-6-(2-fluoro-phenyl)-nicotinamide] | < 1 |
| O=C(Nc1ccc(C2CCCC2)cc1)c1ccc(-c2ncccc2F)cc1 [Compound 363, N-(4-Cyclopenyl-phenyl)-4-(3-fluoro-pyridin-2-yl)-benzamide] | < 1 |
| CCc1ccc(NC(=O)c2ccc(-c3ccccc3F)nc2)cc1 [Compound 365, N-(4-Ethyl-phenyl)-6-(2-fluoro-phenyl)-nicotinamide] | < 1 |
| CCc1ccc(NC(=O)c2ccc(-c3ccccc3C)nc2)cc1 [Compound 374, N-(4-Ethyl-phenyl)-6-o-tolyl-nicotinamide] | < 1 |
| O=C(Nc1ccc(F)cc1)c1ccc(-c2ncccc2F)cc1 [Compound 375, N-(4-Fluoro-phenyl)-4-(3-fluoro-pyridin-2-yl)-benzamide] | < 1 |
| COc1ccccc1-c1ccc(C(=O)Nc2ccc(C(C)C)cc2)cn1 [Compound 378, N-(4-Isopropyl-phenyl)-6-(2-methoxy-phenyl)-nicotinamide] | < 1 |
| Cc1cccc(-c2ccc(C(=O)Nc3ccc(C(C)C)cc3)cn2)c1 [Compound 383, N-(4-Isopropyl-phenyl)-6-m-tolyl-nicotinamide] | < 1 |
| Cc1ccccc1-c1ccc(C(=O)Nc2ccc(C(C)C)cc2)cn1 [Compound 384, N-(4-Isopropyl-phenyl)-6-o-tolyl-nicotinamide] | < 1 |
| CC(C)c1ccc(NC(=O)c2ccc(-c3ccccc3)nc2)cc1 [Compound 385, N-(4-Isopropyl-phenyl)-6-phenyl-nicotinamide] | < 1 |
| CCCc1ccc(NC(=O)c2ccc(-c3ccccc3C)nc2)cc1 [Compound 389, N-(4-Propyl-phenyl)-6-o-tolyl-nicotinamide] | < 1 |
| CCC(C)c1ccc(NC(=O)c2ccc(-c3ncccc3F)cc2)cc1 (stereo not drawn) [Compound 390, N-(4-sec-Butyl-phenyl)-4-(3-fluoro-pyridin-2-yl)-benzamide] | < 1 |

| SMILES | Ki [µM] |
| --- | --- |
| COc1ccc(F)cc1-c1ccc(C(=O)Nc2ccc(C(C)(C)C)cc2Cl)cn1 [Compound 391, N-(4-tert-Butyl-2-chloro-phenyl)-6-(5-fluoro-2-methoxy-phenyl)-nicotinamide] | < 1 |
| CC(C)(C)[C@H]1CC[C@H](NC(=O)c2ccc(-c3ncccc3Cl)cc2)CC1 [Compound 392, N-(4-tert-Butyl-cyclohexyl)-4-(3-chloro-pyridin-2-yl)-benzamide (trans)] | < 1 |
| CC(C)(C)[C@H]1CC[C@@H](NC(=O)c2ccc(-c3ncccc3Cl)cc2)CC1 [Compound 393, N-(4-tert-Butyl-cyclohexyl)-4-(3-chloro-pyridin-2-yl)-benzamide (cis)] | < 1 |
| CC(C)(C)c1ccc(NC(=O)c2ccc(-c3ncccc3C(F)(F)F)cc2O)cc1 [Compound 394, N-(4-tert-Butyl-phenyl)-2-hydroxy-4-(3-trifluoromethyl-pyridin-2-yl)-benzamide] | < 1 |
| CC(C)(C)c1ccc(NC(=O)c2ccc(-c3ncccc3C(F)(F)F)cc2[N+](=O)[O-])cc1 [Compound 395, N-(4-tert-Butyl-phenyl)-2-nitro-4-(3-trifluoromethyl-pyridin-2-yl)-benzamide] | < 1 |
| CC(C)(C)c1ccc(NC(=O)c2ccc(-c3ccc4[nH]ccc4c3)cc2)cc1 [Compound 396, N-(4-tert-Butyl-phenyl)-4-(1H-indol-5-yl)-benzamide] | < 1 |
| CC(C)(C)c1ccc(NC(=O)c2ccc(C3CCCCN3S(C)(=O)=O)cc2)cc1 (stereo not drawn) [Compound 397, N-(4-tert-Butyl-phenyl)-4-(1-methanesulfonyl-piperidin-2-yl)-benzamide] | < 1 |
| CN1CCCCC1c1ccc(C(=O)Nc2ccc(C(C)(C)C)cc2)cc1 (stereo not drawn) [Compound 398, N-(4-tert-Butyl-phenyl)-4-(1-methyl-piperidin-2-yl)-benzamide] | < 1 |
| CCCN1CCCCC1c1ccc(C(=O)Nc2ccc(C(C)(C)C)cc2)cc1 (stereo not drawn) [Compound 399, N-(4-tert-Butyl-phenyl)-4-(1-propyl-piperidin-2-yl)-benzamide] | < 1 |
| CC(C)(C)c1ccc(NC(=O)c2ccc(-c3ncc(Cl)cc3Cl)cc2)cc1 [Compound 400, N-(4-tert-Butyl-phenyl)-4-(3,5-dichloro-pyridin-2-yl)-benzamide] | < 1 |
| CC(C)(C)c1ccc(NC(=O)c2ccc(-c3ncccc3-c3nnco3)cc2)cc1 [Compound 401, N-(4-tert-Butyl-phenyl)-4-(3-[1,3,4]oxadiazol-2-yl-pyridin-2-yl)-benzamide] | < 1 |
| CC(C)(C)c1ccc(NC(=O)c2ccc(-c3ncc(C(F)(F)F)cc3Cl)cc2)cc1 [Compound 402, N-(4-tert-Butyl-phenyl)-4-(3-chloro-5-trifluoromethyl-pyridin-2-yl)-benzamide] | < 1 |
| CC(C)(C)c1ccc(NC(=O)c2ccc(-c3nccnc3Cl)cc2)cc1 [Compound 403, N-(4-tert-Butyl-phenyl)-4-(3-chloro-pyrazin-2-yl)-benzamide] | < 1 |
| CC(C)(C)c1ccc(NC(=O)c2ccc(-c3ncccc3Cl)cc2)cc1 [Compound 404, N-(4-tert-Butyl-phenyl)-4-(3-chloro-pyridin-2-yl)-benzamide] | < 1 |
| CC(C)(C)c1ccc(NC(=O)c2ccc(-c3ncccc3C#N)cc2)cc1 [Compound 405, N-(4-tert-Butyl-phenyl)-4-(3-cyano-pyridin-2-yl)-benzamide] | < 1 |
| CC(C)(C)c1ccc(NC(=O)c2ccc(-c3ncccc3NC3CCCC3)cc2)cc1 [Compound 406, N-(4-tert-Butyl-phenyl)-4-(3-cyclopentylamino-pyridin-2-yl)-benzamide] | < 1 |
| CN(C)Cc1cccnc1-c1ccc(C(=O)Nc2ccc(C(C)(C)C)cc2)cc1 [Compound 407, N-(4-tert-Butyl-phenyl)-4-(3-dimethylaminomethyl-pyridin-2-yl)-benzamide] | < 1 |
| CCS(=O)(=O)Nc1cccnc1-c1ccc(C(=O)Nc2ccc(C(C)(C)C)cc2)cc1 [Compound 408, N-(4-tert-Butyl-phenyl)-4-(3-ethanesulfonylamino-pyridin-2-yl)-benzamide] | < 1 |
| CC(C)(C)c1ccc(NC(=O)c2ccc(-c3ncccc3F)cc2)cc1 [Compound 409, N-(4-tert-Butyl-phenyl)-4-(3-fluoro-pyridin-2-yl)-benzamide] | < 1 |
| CC(C)(C)c1ccc(NC(=O)c2ccc(-c3ncccc3C=O)cc2)cc1 [Compound 410, N-(4-tert-Butyl-phenyl)-4-(3-formyl-pyridin-2-yl)-benzamide] | < 1 |
| CC(C)(C)c1ccc(NC(=O)c2ccc(-c3ncccc3NO)cc2)cc1 [Compound 411, N-(4-tert-Butyl-phenyl)-4-(3-hydroxyamino-pyridin-2-yl)-benzamide] | < 1 |
| CC(C)(C)c1ccc(NC(=O)c2ccc(-c3ncccc3CO)cc2)cc1 [Compound 412, N-(4-tert-Butyl-phenyl)-4-(3-hydroxymethyl-pyridin-2-yl)-benzamide] | < 1 |
| CC(C)(C)c1ccc(NC(=O)c2ccc(-c3ncccc3NS(C)(=O)=O)cc2)cc1 [Compound 413, N-(4-tert-Butyl-phenyl)-4-(3-methanesulfonylamino-pyridin-2-yl)-benzamide] | < 1 |
| CC(C)(C)c1ccc(NC(=O)c2ccc(-c3ncccc3[N+](=O)[O-])cc2)cc1 [Compound 415, N-(4-tert-Butyl-phenyl)-4-(3-nitro-pyridin-2-yl)-benzamide] | < 1 |
